# Results reported in US8101766B2, “Crystalline form of a biphenyl compound” (Theravance, Inc., priority 2004, dated 2012).
# Target: T1, cM5 receptor (Pan troglodytes, UniProt Q5IS53)
# T1 construct: expressed in transfected cells
# T1 sequence (Q5IS53 1-532): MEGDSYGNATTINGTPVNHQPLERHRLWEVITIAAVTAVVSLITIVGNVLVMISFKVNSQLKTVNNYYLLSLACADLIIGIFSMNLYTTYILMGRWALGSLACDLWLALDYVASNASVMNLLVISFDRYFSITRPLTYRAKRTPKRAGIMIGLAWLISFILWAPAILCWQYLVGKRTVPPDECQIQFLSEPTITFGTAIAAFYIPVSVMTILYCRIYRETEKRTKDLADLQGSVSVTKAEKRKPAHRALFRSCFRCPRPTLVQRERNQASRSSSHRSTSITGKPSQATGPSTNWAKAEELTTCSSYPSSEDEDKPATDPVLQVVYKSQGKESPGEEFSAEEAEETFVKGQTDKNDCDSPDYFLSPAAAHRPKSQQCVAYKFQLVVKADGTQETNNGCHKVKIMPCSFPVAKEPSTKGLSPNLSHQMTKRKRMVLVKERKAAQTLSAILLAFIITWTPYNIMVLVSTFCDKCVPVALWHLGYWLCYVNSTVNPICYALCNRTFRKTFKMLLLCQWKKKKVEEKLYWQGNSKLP
# Assay: Blockade of agonist-mediated calcium release via FLIPR assay (cM5)
# Type: cell-based, chimpanzee
# Details: CHO cells stably expressing cM5
# Source text: B. Blockade of Agonist-Mediated Calcium Release Via FLIPR Assays
# Muscarinic receptor subtypes (M1, M3 and M5 receptors), which couple to Gq proteins, activate the phospholipase C (PLC) pathway upon agonist binding to the receptor. As a result, activated PLC hydrolyzes phosphatyl inositol diphosphate (PIP2) to diacylglycerol (DAG) and phosphatidyl-1,4,5-triphosphate (IP3), which in turn generates calcium release from intracellular stores, i.e., endoplasmic and sarcoplasmic reticulum. […] This fluorescence event is measured in real time by the FLIPR, which detects the change in fluorescence from a monolayer of cells cloned with human M1 and M3, and chimpanzee M5 receptors. Antagonist potency can be determined by the ability of antagonists to inhibit agonist-mediated increases in intracellular calcium. […]
# To determine antagonist potency, the dose-dependent stimulation of intracellular Ca^2+ release for oxotremorine was first determined so that antagonist potency can later be measured against oxotremorine stimulation at an EC90 concentration. […]
# The parameters used for the FLIPR were: exposure length of 0.4 seconds, laser strength of 0.5 watts, excitation wavelength of 488 nm, and emission wavelength of 550 nm. Baseline was determined by measuring the change in fluorescence for 10 seconds prior to addition of agonist. […]
smiles,measurement,value
"COc1cc(NC(=O)CCN2CCC(OC(=O)Nc3ccccc3-c3ccccc3)CC2)c(Cl)cc1CNC[C@H](O)c1ccc(O)c2[nH]c(=O)ccc12 [compound of formula I, biphenyl-2-ylcarbamic acid 1-[2-(2-chloro-4-{[(R)-2-hydroxy-2-(8-hydroxy-2-oxo-1,2-dihydroquinolin-5-yl)ethylamino]methyl}-5-methoxyphenylcarbamoyl)ethyl]piperidin-4-yl ester]",Ki,< 10 nM
